This note sets out measurements from US7211572B2 (Japan Tobacco Inc., priority 2003, dated 2007).

Molecules are shown by their SMILES. Where a name gives a salt, the structure may show the parent alone.

The target of the experiment is T1, HIV integrase (Human immunodeficiency virus type 1 group M subtype B, UniProt P12497, F1332H).
T1 construct: HIV integrase full length gene; made in house; host or cells: Escherichia coli BL21(DE3), plasmid pET21a-INH
In words: Determination of enzyme (HIV integrase) inhibitory activity. The note with it: recombinant HIV integrase (F185H), strand transfer ELISA, absorbance at 450 nm. The format is biochemical. The essentials: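 Full-length integrase with F185H, expressed in E. coli and purified, was reacted for 60 min at 37 °C with compound and biotinylated donor DNA bound to streptavidin plates. Target DNA was added for 10 min, then anti-digoxigenin-peroxidase detection at A450; IC50 from % inhibition versus enzyme-free blank.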
As a reminder, the IC50 is the concentration that inhibits the measured activity by half. With `CN(C)C(=O)c1cc(=O)c(O)c2n1CCN(Cc1ccc(Cl)c(Cl)c1)C2=O` [Example 24, N,N-dimethyl-2-(3,4-dichlorobenzyl)-9-hydroxy-1,8-dioxo-1,3,4,8-tetrahydro-2H-pyrido[1,2-a]pyrazine-6-carboxamide], the IC50 was 10 to 100 nM.

On to `Cn1cc2c(c(O)c1=O)C(=O)N(Cc1cccc(C(F)(F)F)c1)CC2` [Example 143, 8-hydroxy-6-methyl-2-(3-trifluoromethylbenzyl)-2,3,4,6-tetrahydro-2,6-naphthyridine-1,7-dione], for which the IC50 is 100 to 1000 nM.

As for `CSc1cn2ccn(Cc3cccc(Cl)c3)c(=O)c2c(O)c1=O` [Example 245, 2-(3-chlorobenzyl)-9-hydroxy-7-methylsulfanyl-2H-pyrido[1,2-a]pyrazine-1,8-dione], the IC50 was 10 to 100 nM.

Regarding `O=C(c1cn2ccn(Cc3cccc(Cl)c3)c(=O)c2c(O)c1=O)N1CCCC1` [Example 184, 2-(3-chlorobenzyl)-9-hydroxy-7-(pyrrolidine-1-carbonyl)-2H-pyrido[1,2-a]pyrazine-1,8-dione], the IC50 lay within 10 to 100 nM.

On to `CCCOc1cc(Cl)ccc1CN1CCn2cc(-c3nccs3)c(=O)c(O)c2C1=O` [Example 357, 2-(4-chloro-2-propoxybenzyl)-9-hydroxy-7-(thiazol-2-yl)-3,4-dihydro-2H-pyrido[1,2-a]pyrazine-1,8-dione hydrochloride], for which the IC50 was 10 to 100 nM.

For the compound `O=C1c2c(O)c(=O)c(-c3nccs3)cn2CCN1Cc1ccc(Cl)c(Cl)c1` [Example 249, 2-(3,4-dichlorobenzyl)-9-hydroxy-7-(thiazol-2-yl)-3,4-dihydro-2H-pyrido[1,2-a]pyrazine-1,8-dione], the IC50 was less than 10 nM.

With `CC(C)C(=O)c1cc(=O)c(O)c2n1CCN(Cc1ccc(Cl)c(Cl)c1)C2=O` [Example 47, 2-(3,4-dichlorobenzyl)-9-hydroxy-6-isobutyryl-3,4-dihydro-2H-pyrido[1,2-a]pyrazine-1,8-dione], the IC50 is less than 10 nM.

As to `CC(=O)Nc1cn2c(c(O)c1=O)C(=O)N(Cc1cccc(Cl)c1F)CC2` [Example 332, N-[2-(3-chloro-2-fluorobenzyl)-9-hydroxy-1,8-dioxo-1,3,4,8-tetrahydro-2H-pyrido[1,2-a]pyrazin-7-yl]acetamide], the IC50 was in the range of 10 to 100 nM.

`CSCc1cc(=O)c(O)c2n1CCN(Cc1ccc(Cl)c(Cl)c1)C2=O` [Example 30, 2-(3,4-dichlorobenzyl)-9-hydroxy-6-methylsulfanylmethyl-3,4-dihydro-2H-pyrido[1,2-a]pyrazine-1,8-dione]: the concentration for half-maximal inhibition (IC50) fell in the range of 10 to 100 nM.

Turning to `CC(C)(C)C(=O)Cc1c(C(=O)C(C)(C)C)c(=O)c(O)c2n1CCN(Cc1ccc(F)cc1)C2=O` [Example 427, 6-(3,3-dimethyl-2-oxobutyl)-7-(2,2-dimethylpropionyl)-2-(4-fluorobenzyl)-9-hydroxy-3,4-dihydro-2H-pyrido [1,2-a]pyrazine-1,8-dione hydrochloride], the IC50 fell in the range of 10 to 100 nM.

As to `COc1ccccc1-c1cn2ccn(Cc3cccc(Cl)c3)c(=O)c2c(O)c1=O` [Example 132, 2-(3-chlorobenzyl)-9-hydroxy-7-(2-methoxyphenyl)-2H-pyrido[1,2-a]pyrazine-1,8-dione hydrochloride], the IC50 lay in the range of 10 to 100 nM.

For `O=c1c(-c2cccc(O)c2)cn2ccn(Cc3cccc(Cl)c3)c(=O)c2c1O` [Example 136, 2-(3-chlorobenzyl)-9-hydroxy-7-(3-hydroxyphenyl)-2H-pyrido[1,2-a]pyrazine-1,8-dione], the IC50 was less than 10 nM.

Turning to `CC1CN(Cc2ccc(Cl)c(Cl)c2)C(=O)c2c(O)c(=O)ccn21` (centres unmarked) [Example 13, 2-(3,4-dichlorobenzyl)-9-hydroxy-4-methyl-3,4-dihydro-2H-pyrido[1,2-a]pyrazine-1,8-dione], the IC50 fell in the range of 10 to 100 nM.

On to `COC(=O)c1cn2c(c(O)c1=O)C(=O)N(Cc1cccc(Cl)c1)CC2` [Example 261, methyl 2-(3-chlorobenzyl)-9-hydroxy-1,8-dioxo-1,3,4,8-tetrahydro-2H-pyrido[1,2-a]pyrazine-7-carboxylate], for which the 50% inhibitory concentration (IC50) fell in the range of 10 to 100 nM.
